# From PMC12947280, “An Antifungal with a Novel Mechanism of Action Discovered via Resistance Gene-Guided Genome Mining” (ACS Central Science, 2026)
# Read-outs that look alike come from different tables or passages of the source.
# How the values were obtained:
# Test in all cases: Antifungal screening, broth microdilution MIC
# Assay type in all cases: cell-based
# [1] = system: Fusarium oxysporum ATCC 48112; settings: for MIC: ATCC48112, Fusarium oxysporum ATCC 48112
# Procedure: (§1) Antifungal screening of 1
# (§2) Antifungal screening was performed by Micromyx, LLC (Kalamazoo, Michigan, USA). Test organisms were either reference strains from the American Type Culture Collection (ATCC; Manassas, VA), the Centers for Disease Control and Prevention (CDC; Atlanta, GA), or clinical isolates from the Micromyx (MMX) collection. Upon receipt at Micromyx, the isolates were streaked under suitable conditions onto agar medium appropriate to each organism. The yeast isolates were incubated for 24 hr at 35 °C and the fungi were incubated for 7 to 13 days at 35 °C, as appropriate. Colonies harvested from these growth plates were resuspended in the appropriate medium containing a cryoprotectant. Aliquots of each suspension were then frozen […]
# (§3) Prior to testing, the yeast isolates were streaked from frozen vials onto Sabouraud Dextrose Agar (SAB; Becton Dickenson [BD]/BBL; Sparks, MD, Lot No. 2228660) and were incubated at 35°C for 24 hr. Additional fungal isolates were streaked from frozen vials onto potato dextrose agar (BD/BBL; Sparks, MD, Lot No. 2046481) and incubated under optimal conditions for […]
# (§4) All MIC measurements were performed in RPMI1640 from Hyclone Laboratories (Logan, UT;
# (§5) Cat. No. SH3001104; Lot No. AC10257966A) buffered with MOPS to pH-7 from Millipore […]
# (§6) MIC values were determined using a broth microdilution procedure described by CLSI. 5,6.
# (§7) Automated liquid handlers (Multidrop 384, Labsystems, Helsinki, Finland; Biomek 3000 and […]
# (§8) Biomek FX, Beckman Coulter Fullerton CA) were used to conduct serial dilutions and liquid […]
# (§9) Solutions of 1 were added in an 11 point 2x serial dilution in DMSO with a maximum tested concentration of 32 μg/ml in the culture medium. Drug solution was added at 1% v/v into 200 μl […]
# (§10) A standardized inoculum of each test organism was prepared in appropriate media per CLSI methods.5,6 The plates were then inoculated with 10 µL of the diluted inoculum using the Biomek 3000 from low to high drug concentration, resulting in a final concentration of approximately 0.5 to 2.5 x 10^3 CFU/mL for yeast and 0.2 to 2.5 x 10^4 CFU/mL for the other fungi. An un-inoculated plate was incubated for the purpose of assessing solubility of the drug […]
# (§11) The plates were stacked 3 to 4 high, covered with a sterile lid on the top plate, and incubated aerobically at 35 °C for 24, 48, and 72 h. For yeast, both the MIC based on complete inhibition and 50% inhibition were reported at 24 and 48 h. For other fungal isolates, the MIC values were recorded at 24 and 48 hr and were based on complete inhibition and 50% inhibition.
# (§12) Intact protein LCMS analysis
# (§13) 10 μM of recombinant S. cerevisiae ALS was incubated with 10 μM compound 1 in buffer (50 mM Tris pH 7.5, 100 mM KCl, 10 uM FAD, 1 mM TPP, 10 mM MgCl2 (with 2.5% DMSO from compound)) at 22 °C for 30 min. Unreacted 1 was removed by passing the reaction mixture through a 30 kDa MWCO filter (Millipore). The collected protein was then denatured and reduced by incubation with 6 M urea and 10 mM DTT at 37 °C for 1 h followed by 20 mM iodoacetamide alkylation for 30 min in dark. This reaction mixture then underwent buffer exchange into 100 mM Tris-HCl pH 8.0 and 10 mM CaCl2 buffer using a 30 kDa MWCO filter.
# (§14) The protein was then incubated with sequencing grade chymotrypsin (Promega) (15:1,w/w) for […]
# (§15) After digestion, the peptide mixture was immediately analysed by LC-MS/MS using a Waters I-class UPLC equipped with an ACQUITY UPLC BEH C18 column (2.1x50 mm, 1.7 µm, Waters) at 50 °C coupled to a Waters Synapt G2Si MS. The sample was injected and subjected to an LC gradient starting from 0.5% mobile phase B (ACN with 0.1% formic acid) for 5 min with linear increase to 40% B over 35 min. Mobile phase A was 0.1% formic acid water. Flow rate was maintained at 0.3 ml/min. MS/MS data was acquired in positive ionization mode with data dependent MS/MS acquisition. Peptide mapping was performed with PEAKs Studio 8.0 (Bioinformatics Solutions Inc.) followed by manual review to identify peptides putatively modified by covalent addition of 1. […]
# [2] = system: Rhizopus oryzae ATCC 11886; settings: for MIC: Rhizopus arrhizus, ATCC11886, Rhizopus oryzae ATCC 11886
# Procedure: as §1, §2, §3, §4, §5, §6, §7, §8, §9, §10, §11, §12, §13, §14, §15
# [3] = system: Aspergillus fumigatus; settings: for MIC: Aspergillus fumigatus
# Procedure: as §1, §2, §3, §4, §5, §6, §7, §8, §9, §10, §11, §12, §13, §14, §15
# [4] = system: Aspergillus niger ATCC 9508; settings: for MIC: ATCC9508, Aspergillus niger ATCC 9508
# Procedure: as §1, §2, §3, §4, §5, §6, §7, §8, §9, §10, §11, §12, §13, §14, §15
# [5] = 24 hr, read-out: MIC 100% growth inhibition
# [6] = 24 hr, read-out: MIC >50% growth inhibition
# [7] = 48 hr, read-out: MIC 100% growth inhibition
# [8] = 48 hr, read-out: MIC >50% growth inhibition
smiles,measurement,setting,value
CCCC1C(C)=CC2CC=CC3(C)C2C1C(=O)C31C(=O)NC(CCCO)C1=O (stereo not drawn) [compound 1],MIC,[1]; [5],> 32 µg/mL
same,MIC,[1]; [6],> 32 µg/mL
same,MIC,[1]; [7],> 32 µg/mL
same,MIC,[1]; [8],> 32 µg/mL
same,MIC (Table S5),"[1]; Fusarium oxysporum, species summary",> 32
same,MIC,[2]; [5],1 µg/mL
same,MIC,[2]; [6],0.5 µg/mL
same,MIC,[2]; [7],16 µg/mL
same,MIC,[2]; [8],8 µg/mL
same,MIC (Table S5),"[2]; Rhizopus oryzae, species summary",1
same,MIC (Table S5),"[3]; A. fumigatus, species summary",2-16
same,MIC,"[3]; 24 h, read-out: MIC 100% growth inhibition, Aspergillus fumigatus ATCC MYA-3626, 24 hr",4 µg/mL
same,MIC,"[3]; 24 h, read-out: MIC 100% growth inhibition, Aspergillus fumigatus CDC 0731 (azole resistant), 24 hr",16 µg/mL
same,MIC,"[3]; 24 h, read-out: MIC 100% growth inhibition, Aspergillus fumigatus CDC 0732 (azole resistant), 24 hr",8 µg/mL
same,MIC,"[3]; 24 h, read-out: MIC 100% growth inhibition, Aspergillus fumigatus CDC 0733 (azole resistant), 24 hr",8 µg/mL
same,MIC,"[3]; 24 h, read-out: MIC 100% growth inhibition, Aspergillus fumigatus CDC 0734 (azole resistant), 24 hr",8 µg/mL
same,MIC,"[3]; 24 h, read-out: MIC 100% growth inhibition, Aspergillus fumigatus CDC 0735 (azole resistant), 24 hr",8 µg/mL
same,MIC,"[3]; 24 h, read-out: MIC 100% growth inhibition, Aspergillus fumigatus CDC 0736 (azole susceptible), 24 hr",8 µg/mL
same,MIC,"[3]; 24 h, read-out: MIC 100% growth inhibition, Aspergillus fumigatus CDC 0737 (azole susceptible), 24 hr",16 µg/mL
same,MIC,"[3]; 24 h, read-out: MIC 100% growth inhibition, Aspergillus fumigatus CDC 0738 (azole susceptible), 24 hr",2 µg/mL
same,MIC,"[3]; 24 h, read-out: MIC 100% growth inhibition, Aspergillus fumigatus CDC 0739 (azole susceptible), 24 hr",4 µg/mL
same,MIC,"[3]; 24 h, read-out: MIC 100% growth inhibition, Aspergillus fumigatus CDC 0740 (azole susceptible), 24 hr",4 µg/mL
same,MIC,"[3]; 24 h, read-out: MIC >50% growth inhibition, Aspergillus fumigatus ATCC MYA-3626, 24 hr",4 µg/mL
same,MIC,"[3]; 24 h, read-out: MIC >50% growth inhibition, Aspergillus fumigatus CDC 0731 (azole resistant), 24 hr",2 µg/mL
same,MIC,"[3]; 24 h, read-out: MIC >50% growth inhibition, Aspergillus fumigatus CDC 0732 (azole resistant), 24 hr",2 µg/mL
same,MIC,"[3]; 24 h, read-out: MIC >50% growth inhibition, Aspergillus fumigatus CDC 0733 (azole resistant), 24 hr",4 µg/mL
same,MIC,"[3]; 24 h, read-out: MIC >50% growth inhibition, Aspergillus fumigatus CDC 0734 (azole resistant), 24 hr",4 µg/mL
same,MIC,"[3]; 24 h, read-out: MIC >50% growth inhibition, Aspergillus fumigatus CDC 0735 (azole resistant), 24 hr",4 µg/mL
same,MIC,"[3]; 24 h, read-out: MIC >50% growth inhibition, Aspergillus fumigatus CDC 0736 (azole susceptible), 24 hr",4 µg/mL
same,MIC,"[3]; 24 h, read-out: MIC >50% growth inhibition, Aspergillus fumigatus CDC 0737 (azole susceptible), 24 hr",2 µg/mL
same,MIC,"[3]; 24 h, read-out: MIC >50% growth inhibition, Aspergillus fumigatus CDC 0738 (azole susceptible), 24 hr",1 µg/mL
same,MIC,"[3]; 24 h, read-out: MIC >50% growth inhibition, Aspergillus fumigatus CDC 0739 (azole susceptible), 24 hr",1 µg/mL
same,MIC,"[3]; 24 h, read-out: MIC >50% growth inhibition, Aspergillus fumigatus CDC 0740 (azole susceptible), 24 hr",1 µg/mL
same,MIC,"[3]; 48 h, read-out: MIC 100% growth inhibition, Aspergillus fumigatus ATCC MYA-3626, 48 hr",> 32 µg/mL
same,MIC,"[3]; 48 h, read-out: MIC 100% growth inhibition, Aspergillus fumigatus CDC 0731 (azole resistant), 48 hr",> 32 µg/mL
same,MIC,"[3]; 48 h, read-out: MIC 100% growth inhibition, Aspergillus fumigatus CDC 0732 (azole resistant), 48 hr",> 32 µg/mL
same,MIC,"[3]; 48 h, read-out: MIC 100% growth inhibition, Aspergillus fumigatus CDC 0733 (azole resistant), 48 hr",> 32 µg/mL
same,MIC,"[3]; 48 h, read-out: MIC 100% growth inhibition, Aspergillus fumigatus CDC 0734 (azole resistant), 48 hr",> 32 µg/mL
same,MIC,"[3]; 48 h, read-out: MIC 100% growth inhibition, Aspergillus fumigatus CDC 0735 (azole resistant), 48 hr",> 32 µg/mL
same,MIC,"[3]; 48 h, read-out: MIC 100% growth inhibition, Aspergillus fumigatus CDC 0736 (azole susceptible), 48 hr",> 32 µg/mL
same,MIC,"[3]; 48 h, read-out: MIC 100% growth inhibition, Aspergillus fumigatus CDC 0737 (azole susceptible), 48 hr",> 32 µg/mL
same,MIC,"[3]; 48 h, read-out: MIC 100% growth inhibition, Aspergillus fumigatus CDC 0738 (azole susceptible), 48 hr",> 32 µg/mL
same,MIC,"[3]; 48 h, read-out: MIC 100% growth inhibition, Aspergillus fumigatus CDC 0739 (azole susceptible), 48 hr",32 µg/mL
same,MIC,"[3]; 48 h, read-out: MIC 100% growth inhibition, Aspergillus fumigatus CDC 0740 (azole susceptible), 48 hr",32 µg/mL
same,MIC,"[3]; 48 h, read-out: MIC >50% growth inhibition, Aspergillus fumigatus ATCC MYA-3626, 48 hr",> 32 µg/mL
same,MIC,"[3]; 48 h, read-out: MIC >50% growth inhibition, Aspergillus fumigatus CDC 0731 (azole resistant), 48 hr",> 32 µg/mL
same,MIC,"[3]; 48 h, read-out: MIC >50% growth inhibition, Aspergillus fumigatus CDC 0732 (azole resistant), 48 hr",> 32 µg/mL
same,MIC,"[3]; 48 h, read-out: MIC >50% growth inhibition, Aspergillus fumigatus CDC 0733 (azole resistant), 48 hr",> 32 µg/mL
same,MIC,"[3]; 48 h, read-out: MIC >50% growth inhibition, Aspergillus fumigatus CDC 0734 (azole resistant), 48 hr",> 32 µg/mL
same,MIC,"[3]; 48 h, read-out: MIC >50% growth inhibition, Aspergillus fumigatus CDC 0735 (azole resistant), 48 hr",32 µg/mL
same,MIC,"[3]; 48 h, read-out: MIC >50% growth inhibition, Aspergillus fumigatus CDC 0736 (azole susceptible), 48 hr",16 µg/mL
same,MIC,"[3]; 48 h, read-out: MIC >50% growth inhibition, Aspergillus fumigatus CDC 0737 (azole susceptible), 48 hr",16 µg/mL
same,MIC,"[3]; 48 h, read-out: MIC >50% growth inhibition, Aspergillus fumigatus CDC 0738 (azole susceptible), 48 hr",32 µg/mL
same,MIC,"[3]; 48 h, read-out: MIC >50% growth inhibition, Aspergillus fumigatus CDC 0739 (azole susceptible), 48 hr",16 µg/mL
same,MIC,"[3]; 48 h, read-out: MIC >50% growth inhibition, Aspergillus fumigatus CDC 0740 (azole susceptible), 48 hr",16 µg/mL
same,MIC,[4]; [5],2 µg/mL
same,MIC,[4]; [6],1 µg/mL
same,MIC,[4]; [7],32 µg/mL
same,MIC,[4]; [8],8 µg/mL
same,MIC (Table S5),"[4]; Aspergillus niger, species summary",2
